≈ marks a conversion by molar mass, not a printed value. Structures can show the parent of a compound that is named as a salt. A value given as a limit tells only on which side of the number the result lay.

What is called melting point is the temperature of the solid-liquid transition. For orientation: MIC means the lowest concentration that inhibits growth of the organism. High values mean a need for much substance, low ones inhibition by little substance.

The subject of data set [1] is H. felis strain (ATCC 49179). Description: H. felis mouse model (clearance / eradication, urease test). It counts as in vivo, mice. To be noted: for Clearance %: 3-day treatment of infected mice, 2 × 10 mg/kg, 6 animals per group; for Eradication of H. felis in the mouse model: animal model (H. felis, mouse), monotherapeutic treatment. The procedure: The bacteria were administered as a suspension (0.1 ml with 10^8-10^9 bacteria) 4 times within 7 days using a pharyngeal tube. Alternatively, stomach homogenates of mice which had been infected earlier were also used for infection.
In some cases, pathogen eradication 24 weeks after the end of the treatment was also determined. In accordance with the “CLO” test used in clinical diagnostics, a microtitre-based urease test was used. Defined stomach biopsy specimens were tested for change of colour within a period of 24 hours.

In a further data set the test system is H. pylori NCTC 11637. Description: MIC, agar dilution test, H. pylori NCTC 11637. The format is cell-based. The settings on record: for MIC: Helicobacter pylori, NCTC11637, lowest concentration with no visible growth. The procedure: (§1) For inoculation, fresh Helicobacter cultures from liquid culture or suspension of the pathogens from agar plates were used. The inoculated agar plates were incubated at 37° C. in an atmosphere containing 5-10% of CO2 for 48-72 hours.

Data set [2] has as its system H. pylori clinic isolate 008. Description: MIC, agar dilution test, H. pylori clinic isolate 008. The format is cell-based. To be noted: lowest concentration with no visible growth; for MIC: Helicobacter pylori. The procedure:
as §1
(Agar dilution tests growth on a series of plates holding different concentrations.)

The next data set concerns H. pylori. The settings on record: cited from earlier work.

In turn, `COC(=O)c1cn(C2CC2)c2c(F)c(N3CC4CCOC4(CN)C3)c(F)cc2c1=O.Cl` (stereo not drawn) returned a melting point of 109 to 111 °C.

Take `C=CCOC(=O)c1cn(C2CC2)c2c(F)c(N3CC4CCOC4(CN)C3)c(F)cc2c1=O.O=C(O)C(F)(F)F` (stereo not drawn): the melting point was 118 to 119 °C (dec.).

In the case of `NCC12CN(c3c(F)cc4c(=O)c(C(=O)OCc5ccccc5)cn(C5CC5)c4c3F)CC1CCO2.O=C(O)C(F)(F)F` (stereo not drawn), the melting point is 119 to 120 °C (dec.).

On to `CC(C)(CF)n1cc(C(=O)O)c(=O)c2cc(F)c(N3CC4CCOC4(CN)C3)cc21.O=C(O)C(F)(F)F` (stereo not drawn), for which the melting point is 197 to 198 °C (dec.).

As for `Cl.NCC12CN(c3cc4c(c(O)c3F)c(=O)c(C(=O)O)cn4C3CC3)CC1CCO2` (stereo not drawn), the melting point was 225 °C (dec.).

For `Cl.NCC12CN(c3nc4c(cc3F)c(=O)c(C(=O)O)cn4-c3cnsn3)CC1CCO2` (stereo not drawn), the melting point was 207 °C (dec.).

As to `NCC12CN(c3cc4c(cc3F)c(=O)c3c(=O)[nH]sc3n4C3CC3)CC1CCO2.O=C(O)C(F)(F)F` (stereo not drawn), the melting point is 215 °C (dec.).

As to `CN1COc2c(N3CC4CCOC4(CN)C3)c(F)cc3c(=O)c(C(=O)O)cn1c23.Cl` (stereo not drawn), the melting point is 233 °C.

On to `COc1c(N2CC3CCOC3(CN)C2)c(F)c(N)c2c(=O)c(C(=O)O)cn(C3CC3)c12.Cl` (stereo not drawn), for which the melting point is 242 to 244 °C (dec.).

For the molecule `C[C@H]1COc2c(N3CC4CCOC4(CN)C3)c(F)cc3c(=O)c(C(=O)O)cn1c23.Cl` (stereo partly drawn), the melting point was 191 to 193 °C (dec.).

Take `Cc1c(F)c(N2CC3CCOC3(CN)C2)cc2c1c(=O)c(C(=O)O)cn2C1CC1.Cl` (stereo not drawn): the melting point was 251 to 253 °C (dec.).

For `CNn1cc(C(=O)O)c(=O)c2cc(F)c(N3CC4CCOC4(CN)C3)c(F)c21.Cl` (stereo not drawn), the melting point was 177 to 179 °C (dec.).

For `COc1c(N2CC3CCOC3(CN)C2)c(F)cc2c(=O)c(C(=O)O)cn(C3CC3)c12.O=C(O)C(F)(F)F` (stereo not drawn), the melting point was 215 to 216 °C (dec.).

In the case of `Cc1nc(N2CC3CCOC3(CN)C2)c(Cl)c2c1c(=O)c(C(=O)O)cn2C1CC1.O=C(O)C(F)(F)F` (stereo not drawn), the melting point is 125 to 128 °C (dec.).

For `CCOC(=O)c1cn(C2CC2)c2c(F)c(N3CC4CCOC4(CN)C3)ncc2c1=O.O=C(O)C(F)(F)F` (stereo not drawn), the melting point was 199 to 200 °C (dec.).

Molecule `CCOC(=O)c1cn(C2CC2)c2c(F)c(N3CC4CCOC4(CN)C3)c(F)cc2c1=O.O=C(O)C(F)(F)F` (stereo not drawn) gave a melting point of 139 to 141 °C.

Turning to `NCC12CN(c3ncc4c(=O)c(C(=O)O)cn(C5CC5)c4c3F)CC1CCO2` (stereo not drawn) (as salt: hydrochloride), the melting point was 301 to 304 °C (dec.).

In data set [1], `Cl.NCC12CN(c3c(F)cc4c(=O)c(C(=O)O)cn(C5CC5)c4c3F)CC1CCO2` (racemic) [Substance A, rac. 7-(1-aminomethyl-2-oxa-7-aza-bicyclo[3.3.0]oct-7-yl)-1-cyclopropyl-6,8-difluoro-1,4-dihydro-4-oxo-3-quinolinecarboxylic acid hydrochloride] came in with a Clearance % of 67%. The “Eradication of the pathogen” value in data set [1] (14-day treatment of the mice with 3×10 mg/kg) was “total eradication”.

Turning to `Cl.N#Cc1c(N2CC3CCOC3(CN)C2)c(F)cc2c(=O)c(C(=O)O)cn(C3CC3)c12` (single isomer, unassigned; (+)) [Example 5 C, (+)-7-(1-aminomethyl-2-oxa-7-aza-bicyclo[3.3.0]oct-7-yl)-8-cyano-1-cyclopropyl-6-fluoro-1,4-dihydro-4-oxo-3-quinolinecarboxylic acid hydrochloride], the Clearance % in data set [1] is 100%.

Consider `O=C(O)c1cn(C2CC2)c2c(Cl)c(N3C[C@@H]4CCCN[C@@H]4C3)c(F)cc2c1=O` [BAY Y 3118, 8-chloro-1-cyclopropyl-7-([S,S]-2,8-diazabicyclo[4.3.0]non-8-yl)-6-fluoro-1,4-dihydro-4-oxo-3-quinolinecarboxylic acid, reference compound], for which the “Eradication of H. felis in the mouse model” value in data set [1] is given as “not possible to achieve eradication”.

Turning to `COc1c(N2CC3CCOC3(CN)C2)c(F)c(N)c2c(=O)c(C(=O)O)cn(C3CC3)c12` (stereo not drawn) [Example 2 C, 5-amino-7-(1-aminomethyl-2-oxa-7-aza-bicyclo[3.3.0]oct-7-yl)-1-cyclopropyl-6-fluoro-1,4-dihydro-8-methoxy-4-oxo-3-quinolinecarboxylic acid], the melting point is 209 to 211 °C (dec.).

With `CCCCOC(=O)c1cn(C2CC2)c2c(F)c(N3CC4CCOC4(CN)C3)c(F)cc2c1=O` (stereo not drawn) [Example 11 B, 1-Butyl 7-(1-aminomethyl-2-oxa-7-aza-bicyclo[3.3.0]oct-7-yl)-1-cyclopropyl-6,8-difluoro-1,4-dihydro-4-oxo-3-quinolinecarboxylate], the melting point is 117 to 119 °C (dec.).

Regarding `C=CCOC(=O)c1cn(C2CC2)c2c(F)c(N3CC4CCOC4(CN)C3)c(F)cc2c1=O` (stereo not drawn) [Example 12 B, Allyl 7-(1-aminomethyl-2-oxa-7-aza-bicyclo[3.3.0]oct-7-yl)-1-cyclopropyl-6,8-difluoro-1,4-dihydro-4-oxo-3-quinolinecarboxylate], the melting point is 133 to 135 °C (dec.).

In the case of `C#CCOC(=O)c1cn(C2CC2)c2c(F)c(N3CC4CCOC4(CN)C3)c(F)cc2c1=O` (stereo not drawn) [Example 13 B, Propargyl 7-(1-aminomethyl-2-oxa-7-aza-bicyclo[3.3.0]oct-7-yl)-1-cyclopropyl-6,8-difluoro-1,4-dihydro-4-oxo-3-quinolinecarboxylate], the melting point was 127 to 129 °C (dec.).

In the case of `NCC12CN(c3c(F)cc4c(=O)c(C(=O)OCc5ccccc5)cn(C5CC5)c4c3F)CC1CCO2` (stereo not drawn) [Example 14 B, Benzyl 7-(1-aminomethyl-2-oxa-7-aza-bicyclo[3.3.0]oct-7-yl)-1-cyclopropyl-6,8-difluoro-1,4-dihydro-4-oxo-3-quinolinecarboxylate], the melting point is 118 to 119 °C (dec.).

On to `CCOC(=O)COC(=O)c1cn(C2CC2)c2c(F)c(N3CC4CCOC4(CN)C3)c(F)cc2c1=O` (stereo not drawn) [Example 15 B, Ethoxycarbonylmethyl 7-(1-aminomethyl-2-oxa-7-aza-bicyclo[3.3.0]oct-7-yl)-1-cyclopropyl-6,8-difluoro-1,4-dihydro-4-oxo-3-quinolinecarboxylate], for which the melting point is 144 to 146 °C (dec.).

In the case of `CC(C)(C)n1cc(C(=O)O)c(=O)c2cc(F)c(N3CC4CCOC4(CN)C3)cc21` (stereo not drawn) [Example 17 B, 7-(1-aminomethyl-2-oxa-7-aza-bicyclo[3.3.0]oct-7-yl)-1-tert-butyl-6-fluoro-1,4-dihydro-4-oxo-3-quinolinecarboxylic acid], the melting point is 217 to 218 °C (dec.).

Turning to `NC(=O)NCC12CN(c3c(F)cc4c(=O)c(C(=O)O)cn(C5CC5)c4c3F)CC1CCO2` (stereo not drawn) [Example 27, 1-cyclopropyl-6,8-difluoro-1,4-dihydro-4-oxo-7-(1-ureidomethyl-2-oxa-7-aza-bicyclo[3.3.0]oct-7-yl)-3-quinolinecarboxylic acid], the melting point is 185 to 187 °C (dec.). Also, the MIC against H. pylori NCTC 11637 came out at 0.5 µg/mL (≈ 1.12 µM). This molecule also came in with an MIC in data set [2] of at most 0.015 µg/mL.

Regarding `NC(=O)NCC12CN(c3c(F)cc4c(=O)c(C(=O)O)cn(C5CC5)c4c3OC(F)F)CC1CCO2` (stereo not drawn) [Example 29, 1-cyclopropyl-8-difluoromethoxy-6-fluoro-1,4-dihydro-4-oxo-7-(1-ureidomethyl-2-oxa-7-aza-bicyclo[3.3.0]oct-7-yl)-3-quinolinecarboxylic acid], the MIC (in the data set with H. pylori NCTC 11637; in data set [2]) was 8 µg/mL (≈ 16.1 µM) each time.

For `NC(=O)NCC12CN(c3c(F)cc4c(=O)c(C(=O)O)cn([C@@H]5C[C@@H]5F)c4c3Cl)CC1CCO2` (stereo partly drawn) [Example 30, 8-chloro-6-fluoro-1-[(1R,2S)-2-fluoro-cyclopropyl]-1,4-dihydro-4-oxo-7-(1-ureidomethyl-2-oxa-7-aza-bicyclo[3.3.0]oct-7-yl)-3-quinolinecarboxylic acid], the MIC with H. pylori NCTC 11637 was 0.125 µg/mL (≈ 0.259 µM); in data set [2] it was 0.25 µg/mL (≈ 0.518 µM).

`O=CNCC12CN(c3c(F)cc4c(=O)c(C(=O)O)cn(C5CC5)c4c3F)CC1CCO2` (stereo not drawn) [Example 31, 1-cyclopropyl-6,8-difluoro-7-(1-formylaminomethyl-2-oxa-7-aza-bicyclo[3.3.0]oct-7-yl)-1,4-dihydro-4-oxo-3-quinolinecarboxylic acid]: the melting point is 208 to 209 °C (dec.). Further, 0.5 µg/mL (≈ 1.15 µM) was the least that counted as inhibitory in the data set with H. pylori NCTC 11637 (MIC). The MIC in data set [2] was below 0.5 µg/mL.

In the case of `C=Cc1c(F)c(N2CC3CCOC3(CN)C2)c(F)c2c1c(=O)c(C(=O)O)cn2C1CC1.Cl` (stereo not drawn) [Ref.*^), 7-(1-aminomethyl-2-oxa-7-aza-bicyclo[3.3.0]oct-7-yl)-1-cyclopropyl-6,8-difluror-1,4-dihydro-4-oxo-5-vinyl-3-quinolinecarboxylic acid hydrochloride], the “Activity against H. pylori” value in the data set with H. pylori is “relatively low”.

`C=Cc1c(F)c(N2CC3CCOC3(CN)C2)c(F)c2c1c(=O)c(C(=O)O)cn2C1CC1.Cl` (stereo not drawn) [Ref.*^)]: the “MIC H. pylori 11637” value against H. pylori NCTC 11637 (lowest concentration with no visible growth) is 0.25 µg/mL. In data set [2], the “MIC H. pylori 008” value is 0.25 µg/mL.

Consider `CCn1cc(C(=O)O)c(=O)c2cc(F)c(N3CCNC(C)C3)c(F)c21` (stereo not drawn) [lomefloxacin, reference compound], for which the “Eradication of H. felis in the mouse model” value in data set [1] was “not capable of eradicating the germ”.

The record behind these values is US20010036941A1, “Use of 7-(1-aminomethyl-2-oxa-7-aza-bicyclo[3.3.0]oct-7-yl)-quinolonecarboxylic acid and -naphthyridonecarboxylic acid derivatives for the therapy of Helicobacter pylori infections and associated gastroduodenal disorders” (priority 1996, published 2001).
